US20240398777A1, “METHOD OF TREATING SYMPTOMS OF PRADER-WILLI SYNDROME” (HARMONY BIOSCIENCES, LLC, priority 2023, published 2024)

Experiments:
Assay type in all cases: in vivo, human
[1] = test system: excessive daytime sleepiness (EDS) in subjects with PWS; experiment: Phase 2 randomized placebo-controlled study: ESS-CHAD (parent/caregiver version)
Method: (§1) A study was carried out to evaluate the efficacy and safety of pitolisant for the treatment of EDS in subjects with PWS. This was a phase 2, randomized, placebo-controlled, proof-of-concept study. Children (aged 6 to <12 years), adolescents (aged 12 to <18 years), and adults (aged 18-65 years) with a confirmed diagnosis of PWS were randomly assigned to receive low-dose pitolisant (8.9 mg in children, 13.35 mg in adolescents, and 17.8 mg in adults) or high dose pitolisant (17.8 mg in children, 26.7 mg in adolescents, and 35.6 mg in adults), or placebo (see FIG. 1). All doses are expressed in terms of pitolisant freebase.
(§2) The 11-week double-blind treatment period consisted of a 3-week titration phase and an 8-week stable-dose phase.
The primary efficacy endpoint was the change from baseline to Week 11 in total score for the parent/caregiver version of the Epworth Sleepiness Scale for Children and Adolescents (ESS-CHAD), which is a validated measurement for sleep propensity. (See Janssen K C, et al. Sleep Med. 2017; 33:30-35; see also Patel V P, et al. J. Clin. Sleep Med. 2022; 18 (2): 485-496). A separate analysis was treatment response defined as ESS-CHAD score reduction of ≥3 points from baseline or Week 11 score of ≤10.

[2] = test system: EDS severity in subjects with PWS; experiment: Phase 2 study: Caregiver Global Impression of Severity (CaGI-S) for EDS; conditions: Week 11
Method: as §1, §2
(§3) Secondary/exploratory endpoints included change from baseline in Caregiver Global Impression of Severity (CaGI-S) for EDS, behavioral disturbance (Aberrant Behavior Checklist-2 [ABC-2]), and hyperphagia (Hyperphagia Questionnaire for Clinical Trials [HQ-CT] in conjunction with the Food Safe Zone Questionnaire [FSZQ]). The primary time frame of interest was from baseline to Week 11.

[3] = test system: behavioral problems in subjects with PWS; experiment: Phase 2 study: Aberrant Behavior Checklist-2 (ABC-2)
Method: as §1, §2, §3
The ABC-2 is a widely used and validated questionnaire that can assess changes in behavioral problems, and is particularly suitable for assessing behavioral changes in subjects with intellectual and developmental disabilities. The ABC-2 questions are subdivided into five domains (irritability, social withdrawal, hyperactivity/noncompliance, inappropriate speech, and stereotypic behavior). Generally, a reduction of 2 or more points in a domain of the ABC-2 is considered clinically meaningful. ABC-2 was used in this trial to determine if pitolisant improved or reduced behavioral problems experienced by subjects living with PWS.

[4] = test system: hyperphagia in subjects with PWS; experiment: Phase 2 study: Hyperphagia Questionnaire for Clinical Trials (HQ-CT); conditions: Week 11; children (6 to <12 years) and adults (18 to 65 years)
Method: as §1, §2, §3

patients with PWS = experiment: Phase 2 study: treatment-emergent adverse events; conditions: for Treatment-related TEAEs: possibly, probably, or definitely related to study drug
Method: as §1, §2

[5] = adolescents (12 to <18 years), higher-dose, n = 6
[6] = adolescents (12 to <18 years), lower-dose, n = 4
[7] = adults (18 to 65 years), higher-dose, n = 5
[8] = adults (18 to 65 years), lower-dose, n = 3
[9] = all patient groups, high dose pitolisant, n = 22
[10] = all patient groups, low dose pitolisant, n = 18
[11] = pitolisant-treated patients (doses pooled)

Clc1ccc(CCCOCCCN2CCCCC2)cc1 [pitolisant]
ESS-CHAD (Parent/Caregiver Version) mean change from baseline at Week 11 ([1]; 6 to <12 years, high-dose pitolisant (17.8 mg), n = 11): −5.5 points
ESS-CHAD (Parent/Caregiver Version) mean change from baseline at Week 11 ([1]; 6 to <12 years, low-dose pitolisant (8.9 mg), n = 12): −3.7 points
ESS-CHAD (Parent/Caregiver Version) mean change from baseline at Week 11 ([1]; 12 to <18 years, high-dose pitolisant (26.7 mg), n = 6): −4.2 points
ESS-CHAD (Parent/Caregiver Version) mean change from baseline at Week 11 ([1]; 12 to <18 years, low-dose pitolisant (13.35 mg), n = 4): −4.5 points
ESS-CHAD (Parent/Caregiver Version) mean change from baseline at Week 11 ([1]; 18 to 65 years, high-dose pitolisant (35.6 mg), n = 5): −4.4 points
ESS-CHAD (Parent/Caregiver Version) mean change from baseline at Week 11 ([1]; 18 to 65 years, low-dose pitolisant (17.8 mg), n = 3): −5.0 points
mean improvement from baseline in ESS-CHAD score versus placebo ([1]; overall patient population, end of treatment, both dose groups): greater for both pitolisant dose groups compared with the placebo group
ESS-CHAD response rate (score reduction of ≥3 points from baseline or score of ≤10 at Week 11) versus placebo ([1]; study completers, Week 11, driven primarily by high-dose group): higher for pitolisant versus placebo
reduction in CaGI-S score versus placebo ([2]; children (6 to <12 years) and adults): greater for pitolisant compared with placebo
CaGI-S mean (SD) change ([2]; higher-dose pitolisant group): −1.1 (1.1)
CaGI-S mean (SD) change ([2]; lower-dose pitolisant group): −1.0 (1.2)
mean reduction on all ABC-2 domains versus placebo ([3]; Week 11, children (6 to <12 years), higher-dose pitolisant): greater for higher-dose pitolisant compared with placebo
ABC-2 Hyperactivity/noncompliance mean change from baseline to Week 11 [3, 5]: −3.8
ABC-2 Inappropriate speech mean change from baseline to Week 11 [3, 5]: −1.7
ABC-2 Irritability mean change from baseline to Week 11 [3, 5]: −5.0
ABC-2 Social withdrawal mean change from baseline to Week 11 [3, 5]: −3.7
ABC-2 Stereotypic behavior mean change from baseline to Week 11 [3, 5]: −0.5
ABC-2 Hyperactivity/noncompliance mean change from baseline to Week 11 [3, 6]: 0.0
ABC-2 Inappropriate speech mean change from baseline to Week 11 [3, 6]: −0.8
ABC-2 Irritability mean change from baseline to Week 11 [3, 6]: −4.8
ABC-2 Social withdrawal mean change from baseline to Week 11 [3, 6]: −3.3
ABC-2 Stereotypic behavior mean change from baseline to Week 11 [3, 6]: 0.3
ABC-2 Hyperactivity/noncompliance mean change from baseline to Week 11 [3, 7]: −5.4
ABC-2 Inappropriate speech mean change from baseline to Week 11 [3, 7]: −2.2
ABC-2 Irritability mean change from baseline to Week 11 [3, 7]: −2.8
ABC-2 Social withdrawal mean change from baseline to Week 11 [3, 7]: −2.4
ABC-2 Stereotypic behavior mean change from baseline to Week 11 [3, 7]: −2.6
ABC-2 Hyperactivity/noncompliance mean change from baseline to Week 11 [3, 8]: 1.0
ABC-2 Inappropriate speech mean change from baseline to Week 11 [3, 8]: 0.7
ABC-2 Irritability mean change from baseline to Week 11 [3, 8]: −3.0
ABC-2 Social withdrawal mean change from baseline to Week 11 [3, 8]: −1.0
ABC-2 Stereotypic behavior mean change from baseline to Week 11 [3, 8]: −0.3
ABC-2 Hyperactivity/noncompliance mean change from baseline to Week 11 [3, 9]: −4.6
ABC-2 Inappropriate speech mean change from baseline to Week 11 [3, 9]: −2.0
ABC-2 Irritability mean change from baseline to Week 11 [3, 9]: −4.8
ABC-2 Social withdrawal mean change from baseline to Week 11 [3, 9]: −4.0
ABC-2 Stereotypic behavior mean change from baseline to Week 11 [3, 9]: −1.2
ABC-2 Hyperactivity/noncompliance mean change from baseline to Week 11 [3, 10]: −0.4
ABC-2 Inappropriate speech mean change from baseline to Week 11 [3, 10]: −0.3
ABC-2 Irritability mean change from baseline to Week 11 [3, 10]: −3.4
ABC-2 Social withdrawal mean change from baseline to Week 11 [3, 10]: −1.9
ABC-2 Stereotypic behavior mean change from baseline to Week 11 [3, 10]: −0.1
reductions in three ABC-2 domains including irritability and hyperactivity/noncompliance ([3]; high dose group): more than 4 points
reduction in HQ-CT score versus placebo [4]: greater for pitolisant compared with placebo
Anxiety (patients with PWS; high-dose pitolisant, n = 22): 1 (4.5) n (%)
Any TEAE (patients with PWS; high-dose pitolisant, n = 22): 11 (50.0) n (%)
Irritability (patients with PWS; high-dose pitolisant, n = 22): 2 (9.1) n (%)
Most common TEAEs (patients with PWS; high-dose pitolisant, n = 22): 1 (4.5) n (%)
Serious TEAEs (patients with PWS; high-dose pitolisant, n = 22): 0 n (%)
Severe TEAEs (patients with PWS; high-dose pitolisant, n = 22): 0 n (%)
Treatment-related TEAEs (patients with PWS; high-dose pitolisant, n = 22): 4 (18.2) n (%)
Anxiety (patients with PWS; low-dose pitolisant, n = 20): 4 (20.0) n (%)
Any TEAE (patients with PWS; low-dose pitolisant, n = 20): 13 (65.0) n (%)
Irritability (patients with PWS; low-dose pitolisant, n = 20): 3 (15.0) n (%)
Most common TEAEs (patients with PWS; low-dose pitolisant, n = 20): 4 (20.0) n (%)
Serious TEAEs (patients with PWS; low-dose pitolisant, n = 20): 0 n (%)
Severe TEAEs (patients with PWS; low-dose pitolisant, n = 20): 0 n (%)
Treatment-related TEAEs (patients with PWS; low-dose pitolisant, n = 20): 7 (35.0) n (%)
safety and tolerability versus known safety profile (patients with PWS; patients with PWS): no new safety signals were observed
adverse event anxiety, incidence (patients with PWS; [11]): 13.0%
adverse event irritability, incidence (patients with PWS; [11]): 17.4%
